Experimental data taken from PubChem BioAssay AID608 (Sanford-Burnham Center for Chemical Genomics, 2007).
Activity calls are given as the source filed them. How the calls were made is not given here.

The molecules below were run against Peptidyl-prolyl cis-trans isomerase FKBP1A (Homo sapiens) (UniProt P62942) (assay: small-molecule binding to FKBP12 – biophysical, NMR detection (AID 608)). Conditions: purified FKBP12.
Peptidyl-prolyl cis-trans isomerase FKBP1A (Homo sapiens), sequence (P62942 whole entry, looked up): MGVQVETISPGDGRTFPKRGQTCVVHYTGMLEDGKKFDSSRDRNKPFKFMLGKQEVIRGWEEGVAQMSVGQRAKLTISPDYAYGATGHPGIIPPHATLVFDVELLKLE

Row | SMILES | Kd
1 | NCc1cc2ccccc2s1 | > 4 mM (inactive)
2 | CC1(C)C(=O)[C@@H]2C[C@@]3(O)C4=CC(=O)O[C@@H](c5ccoc5)[C@]4(C)CCC3C(C)(C2=O)[C@H]1CC(=O)O (stereo partly drawn) | > 4 mM (inactive)
3 | Cc1cc(S(=O)(=O)N2CCOCC2)ccc1F | > 4 mM (inactive)
4 | CC(C)(O)[C@@H]1[C@H]2OC(=O)[C@@H]1[C@]1(O)C[C@H]3O[C@]34C(=O)O[C@H]2[C@]14C | > 4 mM (inactive)
5 | O=C(Nc1cnccn1)c1cccs1 | > 4 mM (inactive)
6 | O=C(O)c1ccc2[nH]c3c(c2c1)CSCC3 | > 4 mM (inactive)
7 | NC(=O)c1cccc2c1OCCO2 | > 4 mM (inactive)
8 | O=C1C2C3C=CC(C3)C2C(=O)N1CCCO (stereo not drawn) | > 4 mM (inactive)
9 | O=C1NC(=S)NC(=O)C1=Cc1cccs1 | > 4 mM (inactive)
10 | COc1ccc(-c2coc3c(O)c(OC)ccc3c2=O)cc1 | > 4 mM (inactive)
11 | O=C(c1ccco1)N1C(=O)c2cccc3cccc1c23 | > 4 mM (inactive)
12 | NS(=O)(=O)c1ccc(NC(=S)NC2CC2)cc1 | > 4 mM (inactive)
13 | Cc1csc(NC(=O)c2ccoc2C)n1 | > 4 mM (inactive)
14 | C=C1C2CC[C@@]3(C)[C@H](c4ccoc4)OC(=O)C[C@]13O[C@H]1CC(=O)C(C)(C)C(CC(=O)OC)C21C (stereo partly drawn) | > 4 mM (inactive)
15 | O=C(Oc1ccc(-c2nnco2)cc1)N1CCCCC1 | > 4 mM (inactive)
16 | Cc1nc(-c2ccccc2)sc1C(N)=O | > 4 mM (inactive)
17 | COc1c(F)c(F)c(-c2csc(N)n2)c(F)c1F | > 4 mM (inactive)
18 | Nc1scc[n+]1CC(=O)[O-] | > 4 mM (inactive)
19 | CN1CCCn2c1nc1c2c(=O)[nH]c(=O)n1C | > 4 mM (inactive)
20 | Cc1[nH]c(=O)[nH]c(=O)c1N1CCOCC1 | > 4 mM (inactive)
21 | O=C1CSC(=Nc2ccc(O)cc2)N1 | > 4 mM (inactive)
22 | O=c1cc(-c2ccc(O)cc2)oc2cc(O)cc(O)c12 | > 4 mM (inactive)
23 | Nc1cc(C(=O)N2CCCC2)cc(C(=O)N2CCCC2)c1 | > 4 mM (inactive)

Row | SMILES | Kd
24 | O=C1OC(N2CCOCC2)c2ccccc21 (stereo not drawn) | > 4 mM (inactive)
25 | Cc1ccc(-n2[nH]c(C)cc2=O)cc1 | > 4 mM (inactive)
26 | c1ccc(CCN2CCN(CCc3ccccn3)CC2)nc1 | > 4 mM (inactive)
27 | COc1cccc2onc(N)c12 | > 4 mM (inactive)
28 | COc1c(OC)c2occc2c2oc(=O)ccc12 | > 4 mM (inactive)
29 | O=C1N/C(=N\c2ccccn2)SC1Cc1ccccc1 (stereo not drawn) | > 4 mM (inactive)
30 | Cc1ccc(C(C)C)c(OCCNC(=O)c2ccccc2OCC(=O)N2CCOCC2)c1 | inactive
31 | NC(=O)c1ccc(N2C(=O)CCC2=O)cc1Cl | > 4 mM (inactive)
32 | COc1cccc(Oc2ccc(N)cn2)c1 | > 4 mM (inactive)
33 | Cc1ccc(C(=O)N2CC(=O)NC(=O)C2)cc1 | > 4 mM (inactive)
34 | O=C(O)C1CC(=O)N(Cc2ccco2)C1 (stereo not drawn) | > 4 mM (inactive)
35 | COc1cc(C)c(S(=O)(=O)N2CCN(C)CC2)cc1C | > 4 mM (inactive)
36 | O=C(Nc1ccon1)c1ccc(Br)o1 | > 4 mM (inactive)
37 | Cc1n[nH]c(=O)nc1N1CCN(c2ccccc2)CC1 | > 4 mM (inactive)
38 | S=c1[nH]nc(-c2cccnc2)n1Cc1ccccc1 | > 4 mM (inactive)
39 | Cc1cc(=O)n(CCc2ccccc2)c(O)c1C#N | > 4 mM (inactive)
40 | [O-][n+]1cc(O)c(CN2CCOCC2)c2ccccc21 | > 4 mM (inactive)
41 | NC(=O)CN1CCCCCC1=O | > 4 mM (inactive)
42 | Cc1ccc(NC(=O)N2CCC(C(N)=O)CC2)cc1 | > 4 mM (inactive)
43 | O=C1CCCN1c1ccc(S(=O)O)cc1 | > 4 mM (inactive)
44 | CC(C)(C)c1cc(CN)c(C(=O)O)o1 | > 4 mM (inactive)
45 | CNCc1ccccc1 | > 4 mM (inactive)
46 | Cc1ccc(S(=O)(=O)CC(N)=O)cc1 | > 4 mM (inactive)

Row | SMILES | Kd
47 | CCSc1nc2ccccc2n1CC(N)=O | > 4 mM (inactive)
48 | CNC(=O)c1cc(C)c(-c2ccccc2)s1 | > 4 mM (inactive)
49 | CC(=O)O[C@H]1C[C@@]2(C)[C@@H](C[C@@H](O)C3[C@]2(C)CC[C@H]2[C@H](C)[C@H](O)CC[C@]32C)/C1=C(/CCC=C(C)C)C(=O)O (stereo partly drawn) | > 4 mM (inactive)
50 | NC1=NC(=O)/C(=C\c2ccccc2)S1 | > 4 mM (inactive)
51 | O=c1/c(=C\c2cccnc2)sc2nc3ccccc3n12 | > 4 mM (inactive)
52 | Cc1cc(C(=O)Nc2cccnc2)no1 | > 4 mM (inactive)
53 | CN1C(=O)/C(=C/c2ccccc2O)NC1=S | > 4 mM (inactive)
54 | CC(=O)c1cccc(NC(=O)NN2CCOCC2)c1 | > 4 mM (inactive)
55 | CC1CN(C(=O)C(Sc2ccccc2)c2ccccc2)CC(C)O1 (stereo not drawn) | inactive
56 | COc1ccc(-c2cc(=O)c3c(OC)c(OC)c(OC)c(OC)c3o2)cc1OC | > 4 mM (inactive)
57 | COc1cc(OC)cc(-c2nc(N)n[nH]2)c1 | > 4 mM (inactive)
58 | Cn1cnc2c(Cl)ncnc21 | > 4 mM (inactive)
59 | COc1ccc2[nH]cc(CCNC(C)=O)c2c1 | > 4 mM (inactive)
60 | O=C(OC[C@H]1O[C@H](OC(=O)c2cc(O)c(O)c(OC(=O)c3cc(O)c(O)c(O)c3)c2)[C@H](OC(=O)c2cc(O)c(O)c(OC(=O)c3cc(O)c(O)c(O)c3)c2)[C@@H](OC(=O)c2cc(O)c(O)c(OC(=O)c3cc(O)c(O)c(O)c3)c2)[C@@H]1OC(=O)c1cc(O)c(O)c(OC(=O)c2cc(O)c(O)c(O)c2)c1)c1cc(O)c(O)c(OC(=O)c2cc(O)c(O)c(O)c2)c1 | > 4 mM (inactive)
61 | COc1c2c(cc3occ(-c4ccc5c(c4)OCO5)c(=O)c13)OC(C)(C)C=C2 | > 4 mM (inactive)
62 | CC(C)(C)C(=O)Nc1nnc(SCC(N)=O)s1 | > 4 mM (inactive)
63 | Cc1nnsc1C(=O)N(C)c1ccccc1 | > 4 mM (inactive)
64 | O=C(Nc1cccnc1)c1cnn2cccnc12 | > 4 mM (inactive)
65 | Clc1ccc(-c2nnc3ccccn23)cc1 | > 4 mM (inactive)
66 | Cc1cc(C)n(S(=O)(=O)c2ccc(C)c(C)c2C)n1 | > 4 mM (inactive)
67 | O=C(O)c1cnn2ccccc12 | > 4 mM (inactive)
68 | O=C(NCC1CCCCC1)c1ccco1 | > 4 mM (inactive)
69 | CC(C)=CCC/C(C)=C/CC/C(C)=C/CC/C(C)=C/CC/C(C)=C/CC/C(C)=C/CC/C(C)=C/CC/C(C)=C/CC/C(C)=C/CO | > 4 mM (inactive)

Row | SMILES | Kd
70 | O=C(O)CCCCC1SCC2NC(=O)NC21 (stereo not drawn) | > 4 mM (inactive)
71 | S=c1ccc(N2CCCCC2)n[nH]1 | > 4 mM (inactive)
72 | COc1ccc(/C=C2/C(=O)N=C(N)N2C)cc1OC | > 4 mM (inactive)
73 | CN1CCc2c(sc(N)c2C#N)C1 | > 4 mM (inactive)
74 | CC(CO)NC(=O)C1C=C2c3cccc4[nH]cc(c34)C[C@H]2N(C)C1 (stereo partly drawn) | > 4 mM (inactive)
75 | CCOC(=O)N1CCCC1c1cccnc1 (stereo not drawn) | > 4 mM (inactive)
76 | NC(=O)C1CCN(c2ccc(Cl)nn2)CC1 | > 4 mM (inactive)
77 | CS(=O)(=O)N1CCN(C(=O)c2ccccc2)CC1 | > 4 mM (inactive)
78 | CCc1c(C)[nH]c(=S)c(C(N)=O)c1C | > 4 mM (inactive)
79 | Cc1cc(F)c(F)c(C(=O)NC2CC2)c1Cl | > 4 mM (inactive)
80 | NCc1nc2ccccc2s1 | > 4 mM (inactive)
81 | CC(=O)c1ccc(NC(=S)N2CCC(O)CC2)cc1 | > 4 mM (inactive)
82 | O=C(Oc1ccc(-c2nnco2)cc1)N1CCOCC1 | > 4 mM (inactive)
83 | Nc1ccc2nccnc2c1 | > 4 mM (inactive)
84 | O=c1cc(-c2ccc(O)cc2)oc2cc(O[C@@H]3O[C@H](CO)[C@@H](O)[C@H](O)[C@H]3O[C@@H]3OC[C@](O)(CO)[C@H]3O)cc(O)c12 | > 4 mM (inactive)
85 | CS(=O)(=O)Nc1nnc(Cc2ccccc2)s1 | > 4 mM (inactive)
86 | NC(=O)N1CCc2ccccc21 | > 4 mM (inactive)
87 | NC(=O)C(=O)Nc1nc(-c2ccccc2)cs1 | > 4 mM (inactive)
88 | O=C(NCCO)c1cc2ccccc2cc1O | > 4 mM (inactive)
89 | O=C(Nc1ccccc1C(F)(F)F)N1CCCCCC1 | > 4 mM (inactive)
90 | O=c1cc(CO)oc(CN2CCCCC2)c1O | > 4 mM (inactive)
91 | Cc1noc(C)c1C(=O)N1CCc2ccccc21 | > 4 mM (inactive)
92 | O=C(O)C1CC(=O)N(CCc2ccc(Cl)cc2)C1 (stereo not drawn) | > 4 mM (inactive)

Row | SMILES | Kd
93 | Cc1cn(C(=O)CN2C(=O)c3ccccc3C2=O)c(C)n1 | > 4 mM (inactive)
94 | C[C@H]1O[C@@H](O[C@H]2[C@@H](O)C[C@H](O[C@H]3[C@@H](O)C[C@H](O[C@H]4CC[C@]5(C)C6C[C@@H](O)[C@]7(C)[C@@H](C8=CC(=O)OC8)CC[C@]7(O)C6CC[C@@H]5C4)O[C@@H]3C)O[C@@H]2C)C[C@H](O)[C@@H]1O (stereo partly drawn) | > 4 mM (inactive)
95 | Cc1cccc(C(C)C)c1NC(=O)c1cccnc1 | > 4 mM (inactive)
96 | NC1=NC(=O)/C(=C\c2cccnc2)S1 | > 4 mM (inactive)
97 | OCC1CNc2ccccc2O1 (stereo not drawn) | > 4 mM (inactive)
98 | CS(=O)(=O)N1CCN(c2ccccc2F)CC1 | > 4 mM (inactive)
99 | O=C(O)c1cccc2c1OCCCO2 | > 4 mM (inactive)
100 | Nc1ncnc2c1ncn2[C@@H]1O[C@H](CO)[C@@H](O)[C@H]1O | > 4 mM (inactive)
101 | NCc1ccc(-c2ccccn2)s1 | > 4 mM (inactive)
102 | c1ccc(CCc2nc(-c3ccccn3)no2)cc1 | > 4 mM (inactive)
103 | COc1ccc2nc(N)sc2n1 | > 4 mM (inactive)
104 | Nc1cc(F)cc(F)c1 | > 4 mM (inactive)
105 | CCOC(=O)Cc1cc(=O)n2[nH]c(C)cc2n1 | > 4 mM (inactive)
106 | CC1CCc2cc(F)ccc2N1C(=O)c1ccc(=O)[nH]n1 (stereo not drawn) | > 4 mM (inactive)
107 | Nc1cccc(-n2cccc2)c1 | > 4 mM (inactive)
108 | COc1ccc(/C=C2/N=C(N)SC2=O)cc1 | > 4 mM (inactive)
109 | CC1CN(C(=O)CSc2ccccc2)CC(C)O1 (stereo not drawn) | inactive
110 | Nn1c(CN2CCCCC2)nc2ccccc2c1=O | > 4 mM (inactive)
111 | O=C(Nc1ccc2c(c1)OCO2)c1cnn2cccnc12 | > 4 mM (inactive)
112 | CSc1nn(-c2ccccc2)c(N)c1C#N | > 4 mM (inactive)
113 | Cc1cc(C)n(-c2nc(C)nc(N)n2)n1 | > 4 mM (inactive)
